One experiment deals with UCP1. As to the kind of experiment: UCP1 gene expression by qRT-PCR in hASC cells. In kind it is cell-based, human. The following applies: 8 μM Naringenin, 30 μM Nicotinamide Riboside or the combination, 6 days. As for the experimental part: (§1) Human adipose derived stem cells (hASC, LaCell, L.L.C., New Orleans, La.) from two different female overweight (BMI=26) donors were plated at a density of 10000 cells/cm^2 on 96-well plates and 24-well plates in preadipocyte medium (HyClone DMEM/F12 1:1, 10% fetal bovine serum (FBS), 1% Antibiotic/Antimycotic (Penicillin/Streptomycin/amphotericin)) at 37° C. in 5% CO2. […]
(§2) hASC cells were grown in a 96-well plate and treated as indicated. […] Gene expression was assessed by quantitative real-time polymerase chain reaction (qRT-PCR) using StepOnePlus™ PCR system (Thermo Fisher Scientific) and TaqMan Gene expression assays for UCP1 (Invitrogen, assay ID # Hs01084772_m1), Glut 4 (Invitrogen, assay ID # Hs00168966_m1), CPT1b (Invitrogen, assay ID # Hs0046298_s1), PRDM16 (Invitrogen, assay ID # Hs00223161_m1), AdipoQ (Invitrogen, assay ID # HS00605917_m1), ChREBP (Invitrogen, assay ID # HS00975714_m1), ATGL (Invitrogen, assay ID # Hs00982042), and RPL13A (Invitrogen, assay ID #Hs04194366_g1) as endogenous control.
(§3) Results were combined and calculated as fold changes of Control and represented as mean±SEM.

The next experiment deals with Sirt1. As to the kind of experiment: Western blot of Sirt1 in hASC cells. The settings on record: 8 μM Naringenin, 30 μM Nicotinamide Riboside or the combination, 6 days. In kind it is cell-based, human. As for the experimental part:
(§4) Human adipose derived stem cells (hASC, LaCell, L.L.C., New Orleans, La.) from two different female overweight (BMI=26) donors were plated at a density of 10000 cells/cm^2 on 96-well plates and 24-well plates in preadipocyte medium (HyClone DMEM/F12 1:1, 10% fetal bovine serum (FBS), 1% Antibiotic/Antimycotic (Penicillin/Streptomycin/amphotericin)) at 37° C. in 5% CO2. One day after reaching confluence, preadipocytes were induced to differentiate with a differentiation medium consisting of 70% Gibco DMEM (high glucose 4.5 g/L), 30% HyClone DMEM/F12 1:1 (3 g/L glucose), 3% FBS, 1% Antibiotic/Antimycotic, 1 μM Dexamethasone, 33 μM Biotin, 100 nM Insulin, 20 μM Pantothenate, 5 μM Rosiglitazone, 500 μM IBMX. […]
(§5) The Phospho-AMPKα (Thr172)-, AMPK- and Sirt1—antibody was obtained from Cell Signaling (Danvers, Mass.). hASC cells were grown on 24-well plates and treated as indicated. Proteins were extracted by using standard protocols and measured by BCA kit (Thermo Scientific). […] Visualization and chemiluminescent detection was conducted using BioRad ChemiDoc instrumentation and software (Bio-Rad Laboratories, Hercules, Calif.) and band intensity was assessed using Image Lab 4.0 (Bio-Rad Laboratories, Hercules, Calif.), with correction for background. […]

The next experiment has as its system ChREBP. As to the kind of experiment: ChREBP gene expression by qRT-PCR in hASC cells. In kind it is cell-based, human. The settings on record: 8 μM Naringenin, 30 μM Nicotinamide Riboside or the combination, 6 days. As for the experimental part:
as §1, §2, §3
In general terms: Real-time PCR tracks product formation cycle by cycle.

A further experiment has as its system AdipoQ. As to the kind of experiment: AdipoQ gene expression by qRT-PCR in hASC cells. Type of experiment: cell-based, human. The settings on record: 8 μM Naringenin, 30 μM Nicotinamide Riboside or the combination, 6 days. As for the experimental part:
as §1, §2, §3

A further experiment has as its system Glut4. The experiment can be described thus: Glut4 gene expression by qRT-PCR in hASC cells. The settings on record: 8 μM Naringenin, 30 μM Nicotinamide Riboside or the combination, 6 days. In kind it is cell-based, human. The method, then:
as §1, §2, §3

For a further experiment, the system named is CPT1b. As to the kind of experiment: CPT1b gene expression by qRT-PCR in hASC cells. Type of experiment: cell-based, human. The settings on record: 8 μM Naringenin, 30 μM Nicotinamide Riboside or the combination, 6 days. As for the experimental part: as §1, §2, §3
For a further experiment, the system named is PRDM16. As to the kind of experiment: PRDM16 gene expression by qRT-PCR in hASC cells. Type of experiment: cell-based, human. The settings on record: 8 μM Naringenin, 30 μM Nicotinamide Riboside or the combination, 6 days. The method, then: as §1, §2, §3
Another experiment concerns p-AMPK. The experiment can be described thus: Western blot of p-AMPK in hASC cells. The settings on record: 8 μM Naringenin, 30 μM Nicotinamide Riboside or the combination, 6 days. Type of experiment: cell-based, human. As for the experimental part:
as §4, §5
(In general: In western blotting, separated proteins are transferred to a membrane and probed.)

A further experiment has as its system intracellular NAD+. The following applies: human and animal data (background); cited from earlier work.
The subject of another experiment is ATGL. The experiment can be described thus: ATGL gene expression by qRT-PCR in hASC cells. In kind it is cell-based, human. The settings on record: 8 μM Naringenin, 30 μM Nicotinamide Riboside or the combination, 6 days. As for the experimental part: as §1, §2
Results were combined and calculated as fold changes of Control and represented as mean±SEM. […]

The next experiment deals with hASC cells. As to the kind of experiment: Fatty acid oxidation (Seahorse) oxygen consumption. In kind it is cell-based, human. The settings on record: Seahorse XF 24; palmitate 200 μM; 8 μM Naringenin or combination with 30 μM NR. The method, then: as §4, with “IBMX. Preadipocytes were maintained in this differentiation medium for 4 to 5 days and subsequently cultured in maintenance medium (70% Gibco DMEM high glucose, 30% HyClone DMEM/F12 1:1, 3% FBS, 1% Antibiotic/Antimycotic, 1 μM Dexamethasone, 33 μM Biotin, 100 nM Insulin, 20 μM Pantothenate) (=day 0 for experiments).” for “IBMX.”
The palmitate-stimulated oxygen consumption rate was measured with the XF 24 analyzer (Seahorse Bioscience, Billerica, Mass., USA) Cells were seeded and differentiated as described above. […] Data for each sample were normalized to the pre-palmitate injection baseline for that sample and expressed as % change from that baseline. […] All data are expressed as mean±SEM. […]

We go through three compounds from patent US20220409647A1, “COMPOSITIONS, METHODS AND KITS FOR ALTERING ADIPOCYTES” (NuSirt Sciences, Inc., priority 2019, published 2022).

Regarding `NC(=O)c1ccc[n+]([C@@H]2O[C@H](CO)[C@@H](O)[C@H]2O)c1` [NR, Nicotinamide Riboside], in the experiment on UCP1, the “UCP1 expression, fold changes of Control” value was “no independent effect”. Moreover, in the experiment with Sirt1, the Sirt1 protein expression result is “no significant effect”. Further, the “ChREBP expression, fold changes of Control” value with ChREBP is recorded as “two-fold”. For the same compound, the “AdipoQ expression, fold changes of Control” value in the experiment with AdipoQ is given as “no significant effect”. Also, the “Glut4 expression, fold changes of Control” value in the experiment with Glut4 is listed as “no independent effect”. Besides, in the experiment on CPT1b, the “CPT1b expression, fold changes of Control” value is given as about 2.4 fold. For the same compound, the “PRDM16 expression, fold changes of Control” value in the experiment with PRDM16 is on record as “significantly upregulated”. Further, the p-AMPK protein expression result in the experiment with p-AMPK is “no significant effect”. Also, the “increase in NAD+ resulting from administration” value in the experiment on intracellular NAD+ is given as about 40%.

Regarding `NC(=O)c1ccc[n+]([C@@H]2O[C@H](COP(=O)([O-])O)[C@@H](O)[C@H]2O)c1` [NMN, Nicotinamide mononucleotide], the “increase in NAD+ resulting from administration” value in the experiment on intracellular NAD+ is given as about 40%.

On to `O=C1C[C@@H](c2ccc(O)cc2)Oc2cc(O)cc(O)c21` [naringenin, Naringenin], for which the “UCP1 expression, fold changes of Control” value with UCP1 is recorded as about 12 fold. Also, the Sirt1 protein expression result with Sirt1 was “significantly increased”. Moreover, the “ChREBP expression, fold changes of Control” value in the experiment with ChREBP is reported as “two-fold”. The “ATGL expression, fold changes of Control” value with ATGL was “two-fold”. Besides, the “AdipoQ expression, fold changes of Control” value in the experiment with AdipoQ is “modestly but significantly increased”. The “Glut4 expression, fold changes of Control” value with Glut4 was “two-fold”. Moreover, the “increase in both basal and palmitate-induced oxygen consumption (fatty acid oxidation)” value with hASC cells was 30-40%. In the experiment on CPT1b, the “CPT1b expression, fold changes of Control” value is on record as about 2.4 fold. Besides, the “PRDM16 expression, fold changes of Control” value with PRDM16 was “significantly upregulated”. Besides, the p-AMPK protein expression entry with p-AMPK is reported as “significantly increased”.
